Measurements as given in ChEMBL document CHEMBL4507301 (2021).

What was measured:
[1] = molecular target: Cyclin-dependent kinase 8 (Homo sapiens) (UniProt P49336); settings: Compound concentration 1000.0 nM
[2] = molecular target: cAMP-dependent protein kinase catalytic subunit alpha (Homo sapiens) (UniProt P17612); settings: Compound concentration 1000.0 nM
[3] = system: Proto-oncogene tyrosine-protein kinase receptor Ret (Homo sapiens), P07949 [V804M]; settings: Compound concentration 1000.0 nM
[4] = molecular target: SRSF protein kinase 1 (Homo sapiens) (UniProt Q96SB4); settings: Compound concentration 1000.0 nM
[5] = molecular target: Tyrosine-protein kinase JAK2 (Homo sapiens) (UniProt O60674); settings: Compound concentration 1000.0 nM
[6] = molecular target: Tyrosine-protein kinase Lyn (Homo sapiens) (UniProt P07948); settings: Compound concentration 1000.0 nM
[7] = molecular target: Mitogen-activated protein kinase kinase kinase kinase 2 (Homo sapiens) (UniProt Q12851); settings: Compound concentration 1000.0 nM
[8] = molecular target: Cyclin-dependent kinase-like 2 (Homo sapiens) (UniProt Q92772); settings: Compound concentration 1000.0 nM
[9] = molecular target: Calcium/calmodulin-dependent protein kinase type II subunit delta (Homo sapiens) (UniProt Q13557); settings: Compound concentration 1000.0 nM
[10] = molecular target: Cyclin-dependent kinase 2 homolog (Plasmodium falciparum (isolate 3D7)) (UniProt P61075); settings: Compound concentration 1000.0 nM
[11] = system: Phosphatidylinositol 4,5-bisphosphate 3-kinase catalytic subunit alpha isoform (Homo sapiens), P42336 [H1047Y]; settings: Compound concentration 1000.0 nM
[12] = system: Tyrosine-protein kinase ABL1 (Homo sapiens), P00519 [Y253F]; settings: Compound concentration 1000.0 nM
[13] = molecular target: Tyrosine-protein kinase Fyn (Homo sapiens) (UniProt P06241); settings: Compound concentration 1000.0 nM
[14] = molecular target: Microtubule-associated serine/threonine-protein kinase 1 (Homo sapiens) (UniProt Q9Y2H9); settings: Compound concentration 1000.0 nM
[15] = molecular target: Ephrin type-A receptor 3 (Homo sapiens) (UniProt P29320); settings: Compound concentration 1000.0 nM
[16] = system: Phosphatidylinositol 4,5-bisphosphate 3-kinase catalytic subunit alpha isoform (Homo sapiens), P42336 [E542K]; settings: Compound concentration 1000.0 nM
[17] = molecular target: GABA-A receptor; anion channel (Rattus norvegicus) (UniProt O09028+P15431+P18506+P18508+P19969+P20236+P23574+P23576+P28471+P28473+P30191+P62813+P63079+P63138+Q91ZM7+Q9ES14); settings: Compound concentration 10.0 uM
[18] = molecular target: Mitogen-activated protein kinase kinase kinase 14 (Homo sapiens) (UniProt Q99558); settings: Compound concentration 1000.0 nM
[19] = molecular target: Serine/threonine-protein kinase PAK 2 (Homo sapiens) (UniProt Q13177); settings: Compound concentration 1000.0 nM
[20] = molecular target: MAP kinase-activated protein kinase 2 (Homo sapiens) (UniProt P49137); settings: Compound concentration 1000.0 nM
[21] = molecular target: Phosphorylase b kinase gamma catalytic chain, skeletal muscle/heart isoform (Homo sapiens) (UniProt Q16816); settings: Compound concentration 1000.0 nM
[22] = molecular target: Receptor-interacting serine/threonine-protein kinase 4 (Homo sapiens) (UniProt P57078); settings: Compound concentration 1000.0 nM
[23] = molecular target: Cyclin-dependent kinase 13 (Homo sapiens) (UniProt Q14004); settings: Compound concentration 1000.0 nM
[24] = molecular target: Serine/threonine-protein kinase 4 (Homo sapiens) (UniProt Q13043); settings: Compound concentration 1000.0 nM
[25] = molecular target: Serine/threonine-protein kinase pim-3 (Homo sapiens) (UniProt Q86V86); settings: Compound concentration 1000.0 nM
[26] = molecular target: T1, Alpha-2C adrenergic receptor (Homo sapiens) (UniProt P18825); settings: Compound concentration 10.0 uM
T1 sequence (whole entry): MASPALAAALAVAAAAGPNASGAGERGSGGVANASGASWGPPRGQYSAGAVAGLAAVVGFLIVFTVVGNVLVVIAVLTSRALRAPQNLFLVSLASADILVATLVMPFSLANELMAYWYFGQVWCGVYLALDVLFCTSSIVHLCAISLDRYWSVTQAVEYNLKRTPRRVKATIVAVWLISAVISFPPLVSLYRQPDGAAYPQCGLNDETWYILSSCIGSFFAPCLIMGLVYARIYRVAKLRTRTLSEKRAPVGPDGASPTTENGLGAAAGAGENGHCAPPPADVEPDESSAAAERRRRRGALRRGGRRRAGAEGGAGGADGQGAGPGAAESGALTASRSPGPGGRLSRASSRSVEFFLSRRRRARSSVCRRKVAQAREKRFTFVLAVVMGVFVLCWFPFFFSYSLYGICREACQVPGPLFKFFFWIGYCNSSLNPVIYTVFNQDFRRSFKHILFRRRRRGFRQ

[27] = molecular target: Serine/threonine-protein kinase Nek7 (Homo sapiens) (UniProt Q8TDX7); settings: Compound concentration 1000.0 nM
[28] = molecular target: Rho-associated protein kinase 2 (Homo sapiens) (UniProt O75116); settings: Compound concentration 1000.0 nM
[29] = molecular target: Inhibitor of nuclear factor kappa-B kinase subunit epsilon (Homo sapiens) (UniProt Q14164); settings: Compound concentration 1000.0 nM
[30] = molecular target: Platelet-derived growth factor receptor alpha (Homo sapiens) (UniProt P16234); settings: Compound concentration 1000.0 nM
[31] = molecular target: Ribosomal protein S6 kinase alpha-1 (Homo sapiens) (UniProt Q15418); settings: Compound concentration 1000.0 nM
[32] = molecular target: Serine/threonine-protein kinase ULK2 (Homo sapiens) (UniProt Q8IYT8); settings: Compound concentration 1000.0 nM
[33] = molecular target: Insulin receptor-related protein (Homo sapiens) (UniProt P14616); settings: Compound concentration 1000.0 nM
[34] = molecular target: Mitogen-activated protein kinase kinase kinase 6 (Homo sapiens) (UniProt O95382); settings: Compound concentration 1000.0 nM
[35] = molecular target: Serine/threonine-protein kinase PAK 6 (Homo sapiens) (UniProt Q9NQU5); settings: Compound concentration 1000.0 nM
[36] = molecular target: Atypical kinase COQ8B, mitochondrial (Homo sapiens) (UniProt Q96D53); settings: Compound concentration 1000.0 nM
[37] = molecular target: Dual specificity tyrosine-phosphorylation-regulated kinase 2 (Homo sapiens) (UniProt Q92630); settings: Compound concentration 1000.0 nM

Insulin receptor-related protein (Homo sapiens), sequence (P14616 27-742 limits assumed): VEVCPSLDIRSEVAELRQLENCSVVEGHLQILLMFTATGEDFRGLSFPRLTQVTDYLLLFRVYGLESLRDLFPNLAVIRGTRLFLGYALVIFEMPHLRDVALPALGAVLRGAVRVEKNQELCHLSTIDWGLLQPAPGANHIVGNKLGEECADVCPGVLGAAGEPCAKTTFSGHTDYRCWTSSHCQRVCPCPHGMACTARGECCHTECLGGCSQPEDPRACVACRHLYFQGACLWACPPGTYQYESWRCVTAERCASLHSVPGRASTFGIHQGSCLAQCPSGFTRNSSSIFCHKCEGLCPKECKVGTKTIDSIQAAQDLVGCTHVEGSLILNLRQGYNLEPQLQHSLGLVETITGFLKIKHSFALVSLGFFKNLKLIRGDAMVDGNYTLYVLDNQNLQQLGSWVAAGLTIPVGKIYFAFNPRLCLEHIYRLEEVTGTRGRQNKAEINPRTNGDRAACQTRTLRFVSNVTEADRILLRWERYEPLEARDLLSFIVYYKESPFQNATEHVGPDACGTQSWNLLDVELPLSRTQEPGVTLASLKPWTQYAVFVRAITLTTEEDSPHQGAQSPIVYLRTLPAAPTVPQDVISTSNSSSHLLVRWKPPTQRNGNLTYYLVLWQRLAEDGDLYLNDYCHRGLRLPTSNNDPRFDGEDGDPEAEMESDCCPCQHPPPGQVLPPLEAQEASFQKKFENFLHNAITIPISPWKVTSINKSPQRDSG
Insulin receptor-related protein (Homo sapiens), sequence (P14616 747-1297 limits assumed): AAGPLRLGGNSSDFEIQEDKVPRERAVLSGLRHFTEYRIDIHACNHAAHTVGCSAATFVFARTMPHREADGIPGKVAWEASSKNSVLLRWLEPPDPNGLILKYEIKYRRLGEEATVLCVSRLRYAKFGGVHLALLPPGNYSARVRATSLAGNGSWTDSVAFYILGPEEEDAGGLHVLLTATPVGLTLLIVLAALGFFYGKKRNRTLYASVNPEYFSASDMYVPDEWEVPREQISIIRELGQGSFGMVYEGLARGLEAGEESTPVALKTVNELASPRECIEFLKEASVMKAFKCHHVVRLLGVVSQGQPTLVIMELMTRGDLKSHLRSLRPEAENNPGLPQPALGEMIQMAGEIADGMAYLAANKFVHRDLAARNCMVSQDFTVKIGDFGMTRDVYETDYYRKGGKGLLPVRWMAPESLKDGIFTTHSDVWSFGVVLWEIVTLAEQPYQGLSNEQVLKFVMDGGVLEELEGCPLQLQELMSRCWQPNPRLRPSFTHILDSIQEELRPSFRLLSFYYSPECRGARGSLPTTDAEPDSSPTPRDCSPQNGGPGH
MAP kinase-activated protein kinase 2 (Homo sapiens), sequence (P49137 whole entry, looked up, canonical isoform): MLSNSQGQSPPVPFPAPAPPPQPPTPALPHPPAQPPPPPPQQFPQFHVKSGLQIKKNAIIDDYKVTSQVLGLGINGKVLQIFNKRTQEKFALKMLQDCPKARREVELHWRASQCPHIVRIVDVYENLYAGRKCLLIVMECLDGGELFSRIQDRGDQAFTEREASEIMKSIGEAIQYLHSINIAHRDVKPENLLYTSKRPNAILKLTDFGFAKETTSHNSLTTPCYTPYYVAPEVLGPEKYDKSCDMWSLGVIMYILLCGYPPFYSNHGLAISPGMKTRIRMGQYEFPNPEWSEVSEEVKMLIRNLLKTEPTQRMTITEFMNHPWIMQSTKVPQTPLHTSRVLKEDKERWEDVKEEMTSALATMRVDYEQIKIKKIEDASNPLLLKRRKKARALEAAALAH
Tyrosine-protein kinase Lyn (Homo sapiens), sequence (P07948 2-512 limits assumed): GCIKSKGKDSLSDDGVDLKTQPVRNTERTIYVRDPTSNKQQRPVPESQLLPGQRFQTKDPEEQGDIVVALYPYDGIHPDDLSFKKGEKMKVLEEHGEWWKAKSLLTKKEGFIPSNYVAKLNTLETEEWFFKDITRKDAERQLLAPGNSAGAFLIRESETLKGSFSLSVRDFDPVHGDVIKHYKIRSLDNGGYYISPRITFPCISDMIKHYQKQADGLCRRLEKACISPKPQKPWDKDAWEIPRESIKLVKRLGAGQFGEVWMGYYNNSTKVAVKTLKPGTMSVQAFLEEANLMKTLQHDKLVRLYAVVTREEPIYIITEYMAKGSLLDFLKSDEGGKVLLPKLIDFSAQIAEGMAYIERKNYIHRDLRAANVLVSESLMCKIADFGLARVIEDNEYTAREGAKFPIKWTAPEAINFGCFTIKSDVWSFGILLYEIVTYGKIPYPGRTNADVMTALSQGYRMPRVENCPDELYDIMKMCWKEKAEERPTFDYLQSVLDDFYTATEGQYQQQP
Mitogen-activated protein kinase kinase kinase kinase 2 (Homo sapiens), sequence (Q12851 whole entry): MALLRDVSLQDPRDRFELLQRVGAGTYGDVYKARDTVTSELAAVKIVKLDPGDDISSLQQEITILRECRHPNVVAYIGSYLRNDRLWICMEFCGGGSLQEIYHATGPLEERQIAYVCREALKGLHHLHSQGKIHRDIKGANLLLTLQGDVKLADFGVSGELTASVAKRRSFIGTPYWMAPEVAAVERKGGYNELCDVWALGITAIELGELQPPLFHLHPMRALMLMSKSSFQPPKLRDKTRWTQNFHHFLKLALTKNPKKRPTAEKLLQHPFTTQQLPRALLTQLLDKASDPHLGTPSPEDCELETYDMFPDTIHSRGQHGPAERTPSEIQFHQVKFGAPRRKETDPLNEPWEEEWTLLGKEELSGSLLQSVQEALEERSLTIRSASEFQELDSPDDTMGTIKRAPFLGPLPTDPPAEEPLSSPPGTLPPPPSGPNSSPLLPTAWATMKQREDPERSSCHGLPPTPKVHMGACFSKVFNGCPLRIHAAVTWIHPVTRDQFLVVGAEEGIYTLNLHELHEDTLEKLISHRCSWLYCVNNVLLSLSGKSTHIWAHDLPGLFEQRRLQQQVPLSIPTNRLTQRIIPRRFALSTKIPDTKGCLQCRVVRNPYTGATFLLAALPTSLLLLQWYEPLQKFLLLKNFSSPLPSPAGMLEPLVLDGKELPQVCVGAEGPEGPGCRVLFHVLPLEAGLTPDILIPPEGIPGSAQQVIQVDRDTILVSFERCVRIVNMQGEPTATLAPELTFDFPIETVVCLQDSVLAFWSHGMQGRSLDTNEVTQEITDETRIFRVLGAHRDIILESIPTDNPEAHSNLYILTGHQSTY
Phosphatidylinositol 4,5-bisphosphate 3-kinase catalytic subunit alpha isoform (Homo sapiens), P42336 [E542K], sequence (P42336 whole entry E542K, canonical isoform): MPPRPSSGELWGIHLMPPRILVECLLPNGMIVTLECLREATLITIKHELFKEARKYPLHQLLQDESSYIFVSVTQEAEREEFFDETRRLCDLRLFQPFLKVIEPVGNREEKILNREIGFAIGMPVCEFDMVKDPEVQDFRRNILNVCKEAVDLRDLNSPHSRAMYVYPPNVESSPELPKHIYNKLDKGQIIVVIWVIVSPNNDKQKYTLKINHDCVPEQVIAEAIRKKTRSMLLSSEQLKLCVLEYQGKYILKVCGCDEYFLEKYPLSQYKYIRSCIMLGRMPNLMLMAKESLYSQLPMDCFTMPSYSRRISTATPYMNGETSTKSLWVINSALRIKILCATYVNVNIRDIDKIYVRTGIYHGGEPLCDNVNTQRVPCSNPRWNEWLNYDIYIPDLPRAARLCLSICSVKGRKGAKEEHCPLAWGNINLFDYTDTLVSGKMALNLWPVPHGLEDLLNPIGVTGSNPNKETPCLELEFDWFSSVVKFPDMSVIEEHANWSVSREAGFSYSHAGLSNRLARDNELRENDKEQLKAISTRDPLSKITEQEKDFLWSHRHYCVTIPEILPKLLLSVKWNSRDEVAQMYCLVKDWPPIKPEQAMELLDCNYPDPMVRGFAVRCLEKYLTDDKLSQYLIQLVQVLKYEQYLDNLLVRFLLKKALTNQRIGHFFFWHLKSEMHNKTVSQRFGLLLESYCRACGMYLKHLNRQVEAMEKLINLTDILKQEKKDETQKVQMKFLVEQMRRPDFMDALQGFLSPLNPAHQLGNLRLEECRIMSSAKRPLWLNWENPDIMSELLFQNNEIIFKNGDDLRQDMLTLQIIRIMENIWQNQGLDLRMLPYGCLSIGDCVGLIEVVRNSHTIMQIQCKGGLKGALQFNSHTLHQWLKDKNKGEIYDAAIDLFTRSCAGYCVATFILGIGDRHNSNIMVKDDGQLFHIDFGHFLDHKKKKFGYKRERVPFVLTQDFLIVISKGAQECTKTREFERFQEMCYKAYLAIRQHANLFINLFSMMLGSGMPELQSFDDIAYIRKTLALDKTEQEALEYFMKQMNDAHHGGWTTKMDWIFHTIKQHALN
Ephrin type-A receptor 3 (Homo sapiens), sequence (P29320 whole entry, canonical isoform): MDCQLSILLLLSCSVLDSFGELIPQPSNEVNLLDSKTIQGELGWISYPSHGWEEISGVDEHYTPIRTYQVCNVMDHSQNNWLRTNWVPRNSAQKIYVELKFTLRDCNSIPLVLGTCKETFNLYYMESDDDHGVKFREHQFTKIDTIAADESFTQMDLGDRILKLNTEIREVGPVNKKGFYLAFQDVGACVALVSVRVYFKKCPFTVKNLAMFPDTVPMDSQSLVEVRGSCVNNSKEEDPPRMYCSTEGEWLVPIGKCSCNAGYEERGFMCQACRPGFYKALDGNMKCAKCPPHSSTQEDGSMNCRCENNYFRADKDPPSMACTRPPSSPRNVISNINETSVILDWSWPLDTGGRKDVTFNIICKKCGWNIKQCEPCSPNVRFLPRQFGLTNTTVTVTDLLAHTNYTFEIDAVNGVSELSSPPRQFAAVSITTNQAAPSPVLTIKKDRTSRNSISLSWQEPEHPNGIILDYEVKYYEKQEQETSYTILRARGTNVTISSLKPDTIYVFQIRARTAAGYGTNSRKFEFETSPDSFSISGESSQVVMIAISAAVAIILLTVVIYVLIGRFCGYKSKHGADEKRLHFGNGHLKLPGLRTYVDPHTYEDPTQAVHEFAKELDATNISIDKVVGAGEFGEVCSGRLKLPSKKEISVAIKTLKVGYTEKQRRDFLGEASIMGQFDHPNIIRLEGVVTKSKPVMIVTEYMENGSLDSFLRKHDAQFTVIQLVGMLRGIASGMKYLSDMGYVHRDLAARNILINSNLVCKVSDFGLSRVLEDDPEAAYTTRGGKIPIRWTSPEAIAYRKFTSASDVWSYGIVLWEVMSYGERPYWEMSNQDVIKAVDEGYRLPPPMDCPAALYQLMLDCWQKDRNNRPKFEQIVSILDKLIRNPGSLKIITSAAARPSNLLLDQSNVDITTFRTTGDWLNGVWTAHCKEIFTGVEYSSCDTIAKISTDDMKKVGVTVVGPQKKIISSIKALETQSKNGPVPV

Row | SMILES | residual activity [1] | residual activity [2] | residual activity [3] | residual activity [4] | residual activity [5] | residual activity [6] | residual activity [7] | residual activity [8] | residual activity [9] | residual activity [10] | residual activity [11] | residual activity [12] | residual activity [13] | residual activity [14] | residual activity [15] | residual activity [16] | inhibition [17] | residual activity [18] | residual activity [19] | residual activity [20] | further results
1 | C[C@H](c1cccc(C#N)c1)n1cc(Cl)cc(C(N)=O)c1=N [(R)-9s] | 100% | 100% | 100% | 96% | 100% | 81% | 99% | 100% | 100% | 100% | 95% | 88% | 42% | 96% | 100% | 77% | 0.16% | 62% | 100% | 100% | residual activity [21]: 100%; residual activity [22]: 71%; residual activity [23]: 100%; residual activity [24]: 100%; residual activity [25]: 100%; inhibition [26]: 42.7%; residual activity [27]: 97%; residual activity [28]: 94%; residual activity [29]: 82%; residual activity [30]: 94%; residual activity [31]: 100%; residual activity [32]: 71%; residual activity [33]: 100%; residual activity [34]: 91%; residual activity [35]: 100%; residual activity [36]: 100%; residual activity [37]: 84%
2 | C[C@@H](c1cccc(C#N)c1)n1cc(Cl)cc(C(N)=O)c1=N [(S)-9s] | 92% | 100% | 89% | 100% | 100% | 80% | 90% | 100% | 100% | 100% | 100% | 85% | 65% | 100% | 92% | 89% | 5.78% | 93% | 96% | 97% | residual activity [21]: 100%; residual activity [22]: 57%; residual activity [23]: 100%; residual activity [24]: 100%; residual activity [25]: 100%; inhibition [26]: 3.93%; residual activity [27]: 89%; residual activity [28]: 90%; residual activity [29]: 56%; residual activity [30]: 100%; residual activity [31]: 100%; residual activity [32]: 89%; residual activity [33]: 100%; residual activity [34]: 79%; residual activity [35]: 86%; residual activity [36]: 88%; residual activity [37]: 98%
